Source: patent publication EP4711362A1, “LIGAND TARGETING FIBROBLAST ACTIVATION PROTEIN” (Jiangsu Hengrui Pharmaceuticals Co., Ltd., priority 2023, dated 2024)

Legend:
FAPα enzyme = target: T1, FAPα enzyme (Homo sapiens, UniProt Q12884); test: FAPα enzyme activity test (Z-Gly-Pro-AMC substrate, fluorescence); assay type: biochemical; settings: for IC50 value against FAPα enzyme, times that of the positive drug FAPI-04: relative to FAPI-04; for inhibition at 0.1 µM: read-out: Inhibition rate 100 nM
T1 sequence (Q12884 1-760): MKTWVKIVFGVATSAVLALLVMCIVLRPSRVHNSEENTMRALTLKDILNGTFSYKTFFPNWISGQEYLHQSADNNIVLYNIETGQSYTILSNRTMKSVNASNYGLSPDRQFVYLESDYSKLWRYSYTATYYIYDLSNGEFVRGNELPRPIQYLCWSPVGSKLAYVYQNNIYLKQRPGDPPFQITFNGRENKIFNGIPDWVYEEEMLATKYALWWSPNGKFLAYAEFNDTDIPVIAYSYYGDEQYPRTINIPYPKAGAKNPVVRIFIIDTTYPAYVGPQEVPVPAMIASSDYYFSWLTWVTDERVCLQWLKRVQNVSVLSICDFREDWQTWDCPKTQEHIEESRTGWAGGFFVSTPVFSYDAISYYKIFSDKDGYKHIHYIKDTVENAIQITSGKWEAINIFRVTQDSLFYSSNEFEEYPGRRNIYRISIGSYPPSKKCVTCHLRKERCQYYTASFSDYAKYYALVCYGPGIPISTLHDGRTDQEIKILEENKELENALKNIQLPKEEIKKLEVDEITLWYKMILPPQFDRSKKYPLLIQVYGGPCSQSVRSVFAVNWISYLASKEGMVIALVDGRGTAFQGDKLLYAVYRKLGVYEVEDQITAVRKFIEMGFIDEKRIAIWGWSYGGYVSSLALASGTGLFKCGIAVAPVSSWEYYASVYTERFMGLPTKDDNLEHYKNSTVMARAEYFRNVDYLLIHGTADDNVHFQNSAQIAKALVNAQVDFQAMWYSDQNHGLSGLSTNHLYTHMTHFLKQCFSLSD
Procedure: The substrate (Z-Gly-Pro-AMC) was diluted with DMSO to prepare a 0.5 mM stock solution. Before each experiment, the 0.5 mM stock solution was diluted with PBS to 50 µM for later use. The FAPα protein was diluted with PBS to 0.5 ng/µl for later use. The test compounds and positive control were diluted with PBS to a concentration of 100 nM or 200 nM for the determination of single-point inhibition rate. […] The test compounds and positive control were subjected to a 5-fold serial dilution with PBS to obtain 8 gradients for later use, with the highest concentration being 10 µM, and the lowest concentration being […]. Test method: 85 µl of the FAPα dilution and 10 µl of the compound dilution were added to a microplate, uniformly mixed and incubated at 37°C for 10 min. Then, 5 µL of 50 µM substrate was added, uniformly mixed and incubated at 37°C for 10 min. The microplate was read on a microplate reader, with an excitation wavelength of 380 nm and an emission wavelength of 465 nm.

U-87 MG cells = test: PET imaging test of radiolabelled compounds in U-87 MG tumour-bearing mice; assay type: in vivo, BALB/c nude mice
Procedure: Cell information: U-87 MG cells (Wuhan Pricella Biotechnology Co., Ltd., Cat. No.: CL-0238, Lot No.: YBMIL8BQHO); Culture conditions: U-87 MG cell specific medium (MEM + 10% FBS + 1% P/S); Number of passages: 6-9;
Germline: BALB/c nude mice; age: 4-5 weeks old; Body weight: 15-22 g;
A sufficient quantity of U-87 MG cells was prepared and inoculated into the posterior position of the right forelimb of […] mice in an inoculation volume of 100 µL, containing 50% Matrigel and 4 × 10^6 cells.
The workbench surface was wiped with 75% medical alcohol and covered with a disposable sterile tablecloth. 0.5 mL insulin syringes, alcohol swabs, cotton swabs and a marking pen were prepared in the injection room. The mice were placed in a mouse restrainer, and the tails of the mice were disinfected with alcohol swabs. 0.2-0.5 mL of the formulated test sample was injected into each mouse via the tail vein, with the time of each injection, the activity of the syringe and the activity of the empty syringe recorded. Tumour-bearing mice were anesthetized with isoflurane, then placed in a prone position on small animal PET beds and fixed. PET static image acquisition was performed for 10 min at 0.5 h, 1 h, 2 h and 4 h after administration; a whole-body CT scan was performed before each static scan to obtain distribution images of the labelled compound throughout the body of tumour-bearing mice. PET images at different time points after administration were obtained for each experimental animal. Major organs were selected and delineated, specifically including: parts such as tumour, muscle, bone, lung, brain, liver and kidney. The radioactive accumulation and clearance of the labelled compounds in tumours and non-target tissues of tumour-bearing mice were observed.
Using the same experimental method as in Example 2, the ratio of radioactive accumulation of the labelled compound ^18F-FAPI-42 in tumours to non-target tissues in tumour-bearing mice was observed. Table 4.1 Ratios of 18F-FAPI-42 in tumours to non-target organs (tissues)

**Q.** `N#C[C@@H]1CC(F)(F)CN1C(=O)CNC(=O)c1ccnc2ccc(NC(=O)[C@H]3CC[C@H](CNC(=O)CN4CCN(CC(=O)O)CCN(CC(=O)O)CC4)CC3)cc12` (relative stereo) [Compound 2, 6-(trans-4-(((2-(4,7-dicarboxymethyl-1,4,7-triazacyclononan-1-yl)acetyl)amino)methyl)cyclohexan-1-yl)carboxamido-4-((S)-2-(2-cyano-4,4-difluoropyrrolidin-1-yl)-2-oxoethyl)carbamoylquinoline] was tested. Which “IC50 value against FAPα enzyme, times that of the positive drug FAPI-04” value (FAPα enzyme) did it give?
**A.** 0.71 times

**Q.** For `N#C[C@@H]1CC(F)(F)CN1C(=O)CNC(=O)c1ccnc2ccc(NC(=O)[C@H]3CC[C@H](CNC(=O)CN4CCN(CC(=O)O)CCN(CC(=O)O)CCN(CC(=O)O)CC4)CC3)cc12` [Compound 1, 6-(trans-4-(((2-(4,7,10-tricarboxymethyl-1,4,7,10-tetraazacyclododecan-1-yl)acetyl)amino)methyl)cyclohexan-1-yl)carboxamido-4-((S)-2-(2-cyano-4,4-difluoropyrrolidin-1-yl)-2-oxoethyl)carbamoylquinoline], which IC50 (FAPα enzyme) is on record?
**A.** 0.72 nM

**Q.** And the inhibition at 0.1 µM (FAPα enzyme; 100 nM compound)?
**A.** 84.1%

**Q.** For `N#C[C@@H]1CC(F)(F)CN1C(=O)CNC(=O)c1ccnc2ccc(NC(=O)C3CCC4(CC3)CN(C(=O)CN3CCN(CC(=O)O)CCN(CC(=O)O)CCN(CC(=O)O)CC3)CCO4)cc12` (stereo partly drawn) [Compound 3, 6-((6r,9r)-N-(2-(4,7,10-tricarboxymethyl-1,4,7,10-tetraazacyclododecan-1-yl)acetyl)-1-oxa-4-azaspiro[5.5]undecan-9-yl)carboxamido-4-((S)-2-(2-cyano-4,4-difluoropyrrolidin-1-yl)-2-oxoethyl)carbamoylquinoline], which IC50 (FAPα enzyme) is on record?
**A.** 0.57 nM

**Q.** What about the “Inhibition rate 100 nM” value (FAPα enzyme; 100 nM compound) of the same compound?
**A.** 84.70%

**Q.** With `N#C[C@@H]1CC(F)(F)CN1C(=O)CNC(=O)c1ccnc2ccc(OCCCN3CCN(C(=O)CN4CCN(CC(=O)O)CCN(CC(=O)O)CC4)CC3)cc12` [FAP-42] as the compound, how does the “IC50 value against FAPα enzyme, times that of the positive drug FAPI-04” value (FAPα enzyme) read?
**A.** 2.27 times

**Q.** With `N#C[C@@H]1CC(F)(F)CN1C(=O)CNC(=O)c1ccnc2ccc(OCCCN3CCN(C(=O)CN4CCN(CC(=O)O)CCN(CC(=O)O)CCN(CC(=O)O)CC4)CC3)cc12` [FAPI-04] as the compound, how does the inhibition at 0.1 µM (FAPα enzyme; 100 nM compound) read?
**A.** 92.3%

**Q.** Which results are given for `N#C[C@@H]1CC(F)(F)CN1C(=O)CNC(=O)c1ccnc2ccc(OCCCN3CCN(C(=O)CN4CCN5CCN(CC4)CC(=O)[O][Al]([18F])[O]C(=O)C5)CC3)cc12` [^18F-FAPI-42]?
**A.** Ratio Tumour/gallbladder (U-87 MG cells; 0.5 h): 1.21; Ratio Tumour/intestine (U-87 MG cells; 0.5 h): 3.14; Ratio Tumour/gallbladder (U-87 MG cells; 1.5 h): 1.42; Ratio Tumour/intestine (U-87 MG cells; 1.5 h): 1.28; Ratio Tumour/gallbladder (U-87 MG cells; 3.0 h): 3.15; Ratio Tumour/intestine (U-87 MG cells; 3.0 h): 1.19

**Q.** What does the source list for `N#C[C@@H]1CC(F)(F)CN1C(=O)CNC(=O)c1ccnc2ccc(OCCCN3CCN(C(=O)CN4CCN(CC(=O)[O-])CCN(CC(=O)[O-])CCN(CC(=O)[O-])CC4)CC3)cc12.[68Ga+3]` [^68Ga-FAPI-04]?
**A.** Ratio Tumour/brain (U-87 MG cells; 0.5 h): 6.36; Ratio Tumour/gallbladder (U-87 MG cells; 0.5 h): 4.89; Ratio Tumour/kidney (U-87 MG cells; 0.5 h): 3.35; Ratio Tumour/liver (U-87 MG cells; 0.5 h): 4.79; Ratio Tumour/lung (U-87 MG cells; 0.5 h): 4.73; Ratio Tumour/muscle (U-87 MG cells; 0.5 h): 15.38; Ratio Tumour/shoulder joint (U-87 MG cells; 0.5 h): 2.62; Uptake Brain (U-87 MG cells; 0.5 h after administration): 1.16 ± 0.28 % ID/g; Uptake Gallbladder (U-87 MG cells; 0.5 h after administration): 1.51 ± 0.18 % ID/g; Uptake Kidney (U-87 MG cells; 0.5 h after administration): 2.20 ± 0.10 % ID/g; Uptake Liver (U-87 MG cells; 0.5 h after administration): 1.54 ± 0.23 % ID/g; Uptake Lung (U-87 MG cells; 0.5 h after administration): 1.56 ± 0.45 % ID/g; Uptake Muscle (U-87 MG cells; 0.5 h after administration): 0.48 ± 0.39 % ID/g; Uptake Shoulder joint (U-87 MG cells; 0.5 h after administration): 2.82 ± 0.57 % ID/g; Uptake Tumour (max) (U-87 MG cells; 0.5 h after administration): 13.17 ± 3.28 % ID/g; Uptake Tumour (mean) (U-87 MG cells; 0.5 h after administration): 7.38 ± 1.41 % ID/g; Ratio Tumour/brain (U-87 MG cells; 1.0 h): 9.13; Ratio Tumour/gallbladder (U-87 MG cells; 1.0 h): 5.46; Ratio Tumour/kidney (U-87 MG cells; 1.0 h): 3.42; Ratio Tumour/liver (U-87 MG cells; 1.0 h): 5.76; Ratio Tumour/lung (U-87 MG cells; 1.0 h): 5.81; Ratio Tumour/muscle (U-87 MG cells; 1.0 h): 13.89; Ratio Tumour/shoulder joint (U-87 MG cells; 1.0 h): 2.72; Uptake Brain (U-87 MG cells; 1 h after administration): 0.70 ± 0.09 % ID/g; Uptake Gallbladder (U-87 MG cells; 1 h after administration): 1.17 ± 0.36 % ID/g; Uptake Kidney (U-87 MG cells; 1 h after administration): 1.87 ± 0.20 % ID/g; Uptake Liver (U-87 MG cells; 1 h after administration): 1.11 ± 0.31 % ID/g; Uptake Lung (U-87 MG cells; 1 h after administration): 1.10 ± 0.12 % ID/g; Uptake Muscle (U-87 MG cells; 1 h after administration): 0.46 ± 0.10 % ID/g; Uptake Shoulder joint (U-87 MG cells; 1 h after administration): 2.35 ± 0.44 % ID/g; Uptake Tumour (max) (U-87 MG cells; 1 h after administration): 10.98 ± 2.02 % ID/g; Uptake Tumour (mean) (U-87 MG cells; 1 h after administration): 6.39 ± 0.92 % ID/g; Ratio Tumour/brain (U-87 MG cells; 2.0 h): 8.95; Ratio Tumour/gallbladder (U-87 MG cells; 2.0 h): 5.34; Ratio Tumour/kidney (U-87 MG cells; 2.0 h): 3.42; Ratio Tumour/liver (U-87 MG cells; 2.0 h): 5.71; Ratio Tumour/lung (U-87 MG cells; 2.0 h): 5.71; Ratio Tumour/muscle (U-87 MG cells; 2.0 h): 10.21; Ratio Tumour/shoulder joint (U-87 MG cells; 2.0 h): 2.77; Uptake Brain (U-87 MG cells; 2 h after administration): 0.65 ± 0.21 % ID/g; Uptake Gallbladder (U-87 MG cells; 2 h after administration): 1.09 ± 0.36 % ID/g; Uptake Kidney (U-87 MG cells; 2 h after administration): 1.70 ± 0.17 % ID/g; Uptake Liver (U-87 MG cells; 2 h after administration): 1.02 ± 0.23 % ID/g; Uptake Lung (U-87 MG cells; 2 h after administration): 1.02 ± 0.21 % ID/g; Uptake Muscle (U-87 MG cells; 2 h after administration): 0.57 ± 0.27 % ID/g; Uptake Shoulder joint (U-87 MG cells; 2 h after administration): 2.10 ± 0.36 % ID/g; Uptake Tumour (max) (U-87 MG cells; 2 h after administration): 10.38 ± 2.02 % ID/g; Uptake Tumour (mean) (U-87 MG cells; 2 h after administration): 5.82 ± 1.01 % ID/g; Ratio Tumour/brain (U-87 MG cells; 4.0 h): 8.20; Ratio Tumour/gallbladder (U-87 MG cells; 4.0 h): 4.75; Ratio Tumour/kidney (U-87 MG cells; 4.0 h): 3.34; Ratio Tumour/liver (U-87 MG cells; 4.0 h): 4.47; Ratio Tumour/lung (U-87 MG cells; 4.0 h): 5.43; Ratio Tumour/muscle (U-87 MG cells; 4.0 h): 10.74; Ratio Tumour/shoulder joint (U-87 MG cells; 4.0 h): 2.59; Uptake Brain (U-87 MG cells; 4 h after administration): 0.55 ± 0.17 % ID/g; Uptake Gallbladder (U-87 MG cells; 4 h after administration): 0.95 ± 0.46 % ID/g; Uptake Kidney (U-87 MG cells; 4 h after administration): 1.35 ± 0.23 % ID/g; Uptake Liver (U-87 MG cells; 4 h after administration): 1.01 ± 0.29 % ID/g; Uptake Lung (U-87 MG cells; 4 h after administration): 0.83 ± 0.20 % ID/g; Uptake Muscle (U-87 MG cells; 4 h after administration): 0.42 ± 0.10 % ID/g; Uptake Shoulder joint (U-87 MG cells; 4 h after administration): 1.74 ± 0.42 % ID/g; Uptake Tumour (max) (U-87 MG cells; 4 h after administration): 12.40 ± 0.85 % ID/g; Uptake Tumour (mean) (U-87 MG cells; 4 h after administration): 4.51 ± 0.28 % ID/g
